Results published in ChEMBL document CHEMBL1201862, “PubChem BioAssay data set” (2004).
Activity calls are given as the source filed them.

What was measured:
Caspase-3 = biological target: T1, Caspase-3 (Homo sapiens, UniProt P42574); type: functional;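 also: Dose-response selectivity test against caspase-3 for candidate inhibitors of sentrin-specific proteases (SENPs)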
T1 sequence (P42574 whole entry): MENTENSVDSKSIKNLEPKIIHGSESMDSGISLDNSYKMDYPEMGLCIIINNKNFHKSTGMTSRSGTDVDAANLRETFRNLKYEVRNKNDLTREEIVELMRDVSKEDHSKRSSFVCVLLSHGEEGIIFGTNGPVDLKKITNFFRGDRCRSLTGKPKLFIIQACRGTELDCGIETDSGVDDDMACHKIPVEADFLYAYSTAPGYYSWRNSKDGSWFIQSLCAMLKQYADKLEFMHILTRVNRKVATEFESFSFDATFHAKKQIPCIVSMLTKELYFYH

[1] = biological target: T2, Sentrin-specific protease 7 (Homo sapiens, UniProt Q9BQF6); type: functional;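 also: Luminescence-based dose-response confirmation of ultra-high-throughput screening hits, measuring inhibition of SENP7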
T2 sequence (Q9BQF6 whole entry): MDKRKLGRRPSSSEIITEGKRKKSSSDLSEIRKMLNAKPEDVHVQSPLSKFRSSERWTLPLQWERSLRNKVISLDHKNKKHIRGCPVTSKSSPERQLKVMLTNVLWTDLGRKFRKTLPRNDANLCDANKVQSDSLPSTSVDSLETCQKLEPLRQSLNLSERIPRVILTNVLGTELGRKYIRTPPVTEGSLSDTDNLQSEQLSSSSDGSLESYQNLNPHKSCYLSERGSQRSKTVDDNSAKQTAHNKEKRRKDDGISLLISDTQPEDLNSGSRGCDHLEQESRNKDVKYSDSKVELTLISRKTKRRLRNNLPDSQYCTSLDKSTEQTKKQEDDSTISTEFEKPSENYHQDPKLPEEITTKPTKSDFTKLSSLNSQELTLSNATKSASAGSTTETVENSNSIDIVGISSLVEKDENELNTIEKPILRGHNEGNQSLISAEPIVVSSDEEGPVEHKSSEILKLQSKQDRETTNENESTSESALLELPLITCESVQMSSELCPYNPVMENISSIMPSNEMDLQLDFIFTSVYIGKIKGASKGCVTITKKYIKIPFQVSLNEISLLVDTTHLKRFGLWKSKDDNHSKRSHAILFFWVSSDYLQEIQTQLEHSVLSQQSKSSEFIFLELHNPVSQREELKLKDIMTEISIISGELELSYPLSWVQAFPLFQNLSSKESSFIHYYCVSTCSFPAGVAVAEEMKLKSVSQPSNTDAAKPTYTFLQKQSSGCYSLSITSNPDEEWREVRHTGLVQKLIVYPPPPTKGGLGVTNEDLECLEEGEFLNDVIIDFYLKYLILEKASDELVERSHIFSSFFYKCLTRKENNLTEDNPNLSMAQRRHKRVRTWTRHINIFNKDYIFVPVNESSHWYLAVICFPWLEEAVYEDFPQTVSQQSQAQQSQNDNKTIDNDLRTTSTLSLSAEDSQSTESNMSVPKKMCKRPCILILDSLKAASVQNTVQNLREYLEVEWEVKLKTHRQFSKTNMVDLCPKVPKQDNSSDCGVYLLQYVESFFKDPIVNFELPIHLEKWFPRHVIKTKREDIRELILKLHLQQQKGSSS

[2] = biological target: T3, Sentrin-specific protease 6 (Homo sapiens, UniProt Q9GZR1); type: functional;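 also: Luminescence-based dose-response confirmatory assay of SENP6 inhibition, following up an ultra-high-throughput screen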
T3 sequence (Q9GZR1 whole entry): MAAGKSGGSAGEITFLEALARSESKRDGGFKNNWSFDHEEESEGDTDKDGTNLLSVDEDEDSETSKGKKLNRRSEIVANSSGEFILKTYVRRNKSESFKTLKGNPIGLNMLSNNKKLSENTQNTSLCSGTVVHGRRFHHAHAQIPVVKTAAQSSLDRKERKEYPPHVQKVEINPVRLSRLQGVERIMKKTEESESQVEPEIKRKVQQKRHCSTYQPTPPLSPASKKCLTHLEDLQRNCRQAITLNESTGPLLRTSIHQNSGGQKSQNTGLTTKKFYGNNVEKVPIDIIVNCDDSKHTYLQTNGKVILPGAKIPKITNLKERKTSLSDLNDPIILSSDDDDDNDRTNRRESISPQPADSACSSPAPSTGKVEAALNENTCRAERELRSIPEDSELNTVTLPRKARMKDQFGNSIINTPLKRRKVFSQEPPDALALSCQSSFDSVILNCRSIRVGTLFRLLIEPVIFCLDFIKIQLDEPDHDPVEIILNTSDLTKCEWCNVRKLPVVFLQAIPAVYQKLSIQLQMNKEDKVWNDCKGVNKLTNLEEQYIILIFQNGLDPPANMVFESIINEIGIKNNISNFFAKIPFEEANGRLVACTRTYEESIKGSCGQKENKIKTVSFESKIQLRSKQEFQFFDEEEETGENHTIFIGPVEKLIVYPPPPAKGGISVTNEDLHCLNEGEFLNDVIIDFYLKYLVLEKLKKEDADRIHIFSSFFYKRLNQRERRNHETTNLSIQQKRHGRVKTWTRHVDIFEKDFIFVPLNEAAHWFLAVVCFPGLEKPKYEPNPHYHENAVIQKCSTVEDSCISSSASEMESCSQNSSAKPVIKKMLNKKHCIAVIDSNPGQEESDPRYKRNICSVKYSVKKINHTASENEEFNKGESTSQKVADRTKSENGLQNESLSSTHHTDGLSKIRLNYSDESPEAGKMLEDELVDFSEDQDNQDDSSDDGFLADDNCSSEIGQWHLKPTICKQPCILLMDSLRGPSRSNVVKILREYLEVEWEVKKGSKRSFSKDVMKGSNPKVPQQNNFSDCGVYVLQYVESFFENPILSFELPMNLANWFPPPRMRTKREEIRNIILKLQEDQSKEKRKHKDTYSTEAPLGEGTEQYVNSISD

[3] = biological target: T4, Sentrin-specific protease 8 (Homo sapiens, UniProt Q96LD8); type: functional;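 also: luminescence read-out of SENP8 inhibition, dose-response confirmation following an ultra-high-throughput screen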
T4 sequence (Q96LD8 whole entry): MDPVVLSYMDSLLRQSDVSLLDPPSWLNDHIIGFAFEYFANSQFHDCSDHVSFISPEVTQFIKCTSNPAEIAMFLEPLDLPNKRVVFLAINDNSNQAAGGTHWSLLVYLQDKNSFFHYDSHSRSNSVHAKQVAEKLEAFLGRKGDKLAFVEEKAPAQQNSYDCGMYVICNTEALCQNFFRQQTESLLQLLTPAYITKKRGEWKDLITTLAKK

[4] = biological target: T5, Ubiquitin-conjugating enzyme E2 N (Homo sapiens, UniProt P61088); type: functional;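 also: Dose-response confirmation in a TR-FRET assay detecting UBC13-driven polyubiquitin chain formation, inhibition measured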
T5 sequence (P61088 whole entry): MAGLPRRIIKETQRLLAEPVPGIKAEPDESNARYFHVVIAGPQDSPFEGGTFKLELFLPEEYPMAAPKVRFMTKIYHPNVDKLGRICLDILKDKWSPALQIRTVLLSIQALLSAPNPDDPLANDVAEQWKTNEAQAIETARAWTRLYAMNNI

[5] = NIH-3T3 fibroblast cytotoxicity, dose response, cytotoxicity control, cell-based, fluorescence, Alamar Blue, secondary assay (AID 2327); type: functional;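 also: NIH-3T3 mouse fibroblasts cultured with fluconazole at 8 µg/mL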
[6] = fluconazole-exposed Candida albicans growth modulators – fluorescence, retest, confirmation (AID 2467); type: functional, cell-based
Protein skinhead-1 = biological target: T6, Protein skinhead-1 (Caenorhabditis elegans, UniProt P34707); type: functional
T6 sequence (P34707 whole entry): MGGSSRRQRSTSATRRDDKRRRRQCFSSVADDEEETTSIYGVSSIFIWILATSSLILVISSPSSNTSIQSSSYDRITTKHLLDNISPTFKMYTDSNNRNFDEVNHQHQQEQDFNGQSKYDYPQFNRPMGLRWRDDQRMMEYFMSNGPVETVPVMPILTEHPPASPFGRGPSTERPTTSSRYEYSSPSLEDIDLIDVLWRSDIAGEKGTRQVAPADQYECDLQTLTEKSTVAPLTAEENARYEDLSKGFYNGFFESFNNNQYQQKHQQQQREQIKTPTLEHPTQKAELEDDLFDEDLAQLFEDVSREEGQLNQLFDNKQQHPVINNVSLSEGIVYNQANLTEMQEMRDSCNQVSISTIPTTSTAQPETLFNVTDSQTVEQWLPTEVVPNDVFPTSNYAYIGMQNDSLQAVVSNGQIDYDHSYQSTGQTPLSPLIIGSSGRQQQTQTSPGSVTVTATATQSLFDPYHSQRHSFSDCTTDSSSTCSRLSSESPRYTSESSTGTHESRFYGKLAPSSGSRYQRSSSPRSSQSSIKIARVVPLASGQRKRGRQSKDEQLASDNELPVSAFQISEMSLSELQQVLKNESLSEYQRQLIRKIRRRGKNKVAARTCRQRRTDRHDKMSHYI

[7] = Trypanosoma cruzi growth suppression in host cells – NIH3T3 host cells, beta-gal luminescence, confirmation (AID 2044); type: functional, cell-based;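 also: intracellular parasites grown in NIH/3T3 mouse fibroblasts as host cells; luminescent beta-galactosidase reporter signal from transgenic T. cruzi replicating inside host cells; inhibitors lower the luminescence signal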
[8] = NIH3T3 cell viability loss – ATP luminescence, mouse fibroblasts, counter-screen, dose response (AID 2010); type: functional, cell-based;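 also: cells exposed to compound for about 90 hours before reading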
cells = type: functional
Cytochrome P450 2D6 = Cytochrome P450 2D6 (Homo sapiens, UniProt P10635);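 also: CYP2D6 member of a cytochrome P450 panel assay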
Cytochrome P450 2D6, sequence (P10635 whole entry): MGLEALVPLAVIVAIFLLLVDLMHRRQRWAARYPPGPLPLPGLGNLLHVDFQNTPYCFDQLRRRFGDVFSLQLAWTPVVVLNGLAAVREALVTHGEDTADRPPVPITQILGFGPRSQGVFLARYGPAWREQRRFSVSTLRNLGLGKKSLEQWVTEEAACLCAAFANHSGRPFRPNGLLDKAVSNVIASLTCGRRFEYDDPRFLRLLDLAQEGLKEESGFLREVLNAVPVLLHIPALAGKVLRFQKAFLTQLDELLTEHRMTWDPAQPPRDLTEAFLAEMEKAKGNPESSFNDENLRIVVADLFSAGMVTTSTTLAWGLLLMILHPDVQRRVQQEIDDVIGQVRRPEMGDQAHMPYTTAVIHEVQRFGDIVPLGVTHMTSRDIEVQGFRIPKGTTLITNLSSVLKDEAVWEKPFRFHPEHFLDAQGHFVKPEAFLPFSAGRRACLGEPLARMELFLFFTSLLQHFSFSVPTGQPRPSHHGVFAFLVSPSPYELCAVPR

Row | Structure (SMILES) | IC50 (Caspase-3) | IC50 [1] | IC50 [2] | IC50 [3] | also measured
1 | O=C(Nc1ccccc1)Nc1ccccc1C(=O)NCc1ccccc1 | 39.4 µM (active) | 6.13 µM (active) | > 100 µM (inactive) | > 100 µM (inactive) | 
2 | Cc1ccc(C(C(=O)NCC2CCCO2)N(C(=O)c2snc(C(N)=O)c2N)c2ccc(C(C)C)cc2)o1 (configuration not stated) |  |  |  |  | IC50 [4]: > 20 µM (inactive)
3 | CC/C(C)=N/Nc1cccc([N+](=O)[O-])c1 |  |  |  |  | EC50 [5]: 19.8 µM (active); EC50 [6]: > 38 µM (not active)
4 | Cc1nc(N)sc1C(=O)OCC(C)C |  |  |  |  | IC50 [4]: > 20 µM (inactive)
5 | Cc1ccc(CN2CCC(n3nccc3NC(=O)c3ccccc3C)CC2)o1 |  |  |  |  | IC50 (Protein skinhead-1): > 100 µM (inactive)
6 | Cc1nc2c(C(=O)NCCC(C)C)cnn2c(O)c1Cc1ccccc1F |  |  |  |  | EC50 [5]: > 150 µM (inactive); EC50 [6]: 4.22 µM (active)
7 | N#Cc1cnn(-c2nc(O)c3c4c(sc3n2)CCCC4)c1N |  |  |  |  | EC50 [5]: 16.9 µM (active); EC50 [6]: 0.131 µM (active)
8 | CCOC(=O)Nc1cccc2c1-c1ccc([N+](=O)[O-])cc1C2=O |  |  |  |  | IC50 (Protein skinhead-1): > 100 µM (inactive)
9 | COC(=O)C1CCN(C(=O)CN(C)Cc2ccc(C(C)(C)C)cc2)CC1 |  |  |  |  | EC50 [5]: > 150 µM (inactive); EC50 [6]: 1.43 µM (inconclusive); EC50 [7]: 0.513 µM (active); EC50 [8]: > 60 µM (not active)
10 | c1ccc2c(C[C@@H]3CNCCN3CCCCC3CCCCC3)cccc2c1 |  |  |  |  | IC50 [4]: > 20 µM (inactive)
11 | Clc1cccc(-c2ccc(-c3nc4ccccn4c3NCc3ccccc3)cc2)c1 | 12.9 µM (active) | 7.22 µM (active) | 9.6 µM (active) | 18 µM (active) | 
12 | O=C(OCc1ccccc1Cl)c1cccnc1Cl | 23.5 µM (active) | 11.8 µM (active) | 36.6 µM (active) | 27.3 µM (active) | 
13 | COc1ccc(C(=O)COC(=O)c2ccccc2O)c(OC)c1 | 27.6 µM (active) | 8.26 µM (active) | 13.8 µM (active) | 53.1 µM (active) | IC50 (cells): 36.9 µM (active)
14 | Clc1ccccc1/C=C/c1ccnc2ccccc12 |  |  |  |  | IC50 (Protein skinhead-1): 67.2 µM (inactive)
15 | Brc1c(-c2ccccc2)nc2n1Cc1ccccc1-2 | 15 µM (active) | 5.23 µM (active) | 6.75 µM (active) | 7.57 µM (active) | 
16 | COc1cccc(NC(=O)CN(C)C(=O)c2cccnc2Nc2cccc(C(F)(F)F)c2)c1 |  |  |  |  | IC50 [4]: > 20 µM (inactive)
17 | Cc1ccc(NC(=O)c2cc(-c3ccco3)on2)cc1C |  |  |  |  | IC50 (Protein skinhead-1): > 100 µM (inactive)
18 | C=CCn1c(SCc2ccc(C(=O)Nc3ccccc3)cc2)nnc1-c1ccccc1 |  |  |  |  | EC50 [5]: > 160 µM (inactive); EC50 [6]: > 38 µM (not active); AC50 (Cytochrome P450 2D6): 22.4 µM (inconclusive)
19 | CCOC(=O)/C(C#N)=C/c1ccc(N2CCCCC2)cc1 | 23.4 µM (active) | 7.1 µM (active) | 41.4 µM (active) | 31.6 µM (active) | 
20 | COc1ccc(-n2nc(C(=O)NCc3cc(OC)ccc3OC)c3c4ccccc4n(C)c3c2=O)cc1 |  |  |  |  | IC50 [4]: > 20 µM (inactive)
